According to patent US20240285634A1, “COMPOUND AND METHOD FOR TREATING CHEMOTHERAPY-ASSOCIATED GASTROINTESTINAL SIDE EFFECTS” (ONQUALITY PHARMACEUTICALS CHINA LTD., priority 2021, published 2024):

Tested on: Chemotherapeutic agent-caused diarrhea models of Balb/c mice
Assay: Relieving effect on diarrhea caused by a chemotherapeutic agent (Examples 1-201)
Format: in vivo
From the text: Construction of mouse animal models: Chemotherapeutic agent-caused diarrhea models of Balb/c mice were constructed according to the administration mode and frequency of the chemotherapeutic agent as shown in Table 3. After administration for several days, mice developed different extents of diarrhea symptoms (as shown in FIG. 1), which were similar to the conditions in human. Thus, chemotherapeutic agent-caused diarrhea models of mice are very good models to mimic diarrhea in human caused by the chemotherapeutic agent.
Balb/c mice were fed for 1 week, and then divided into groups. The experiment was divided into a control group, a chemotherapeutic agent group, and a group of the compound as shown in Formula I, each of which comprised 10 mice, to perform the administration experiment, for which the administration dosage, mode, time and frequency were shown in Table 3. The control group: being injected or intragastrically administered with the same solvent as that used in the group of the compound as shown in Formula I (the injection mode and time were shown in Table 3), and then being injected or intragastrically administered with the same solvent as that used in the chemotherapeutic agent group (the administration mode was shown in Table 3); the chemotherapeutic agent group: being injected or intragastrically administered with the same solvent as that used in the group of the compound as shown in Formula I (the administration mode and time were shown in Table 3), and then being injected or intragastrically administered with the chemotherapeutic agent (the type, administration mode and dosage were shown in Table 3); the group of the compound as shown in Formula I: being injected or intragastrically administered with the compound as shown in Formula I (the administration mode and time were shown in Table 3), and then being administered with the chemotherapeutic agent (the administration mode and dosage were shown in Table 3).
The scoring of diarrhea can refer to the method of Akinobu Kurita (Cancer Chemother Pharmacol 2000; 46:211-20.), Grade 0: normal feces; Grade 1: mild diarrhea, the stools is slightly wet and soft; Grade 2: moderate diarrhea, loose stools and mild perianal contamination; Grade 3: severe diarrhea, watery stools and accompanied by severe perianal staining (see FIG. 1). It is regarded as effective remission when the diarrhea grading of mice in the group of the compound as shown in Formula I is reduced compared with the average diarrhea grading of mice in the chemotherapeutic agent group.
The diarrhea grading of mice was observed and recorded every day. At the end of the experiment, the number of mice in the group of the compound as shown in Formula I whose diarrhea grading was lower than that of mice in the chemotherapeutic agent group was recorded. Table 3 lists various animal experiment combinations of chemotherapeutic agents and the compound as shown in Formula I, as well as the corresponding experimental results. (Relative remission rate %=the number of mice in the group of the compound as shown in Formula I whose diarrhea has been effectively relieved/the total number of mice in the group of the compound as shown in Formula I*100%. The establishment rate of diarrhea model in the chemotherapeutic agent group was 50%-70%, that is, about 5-7 of 10 mice developed diarrhea during the experiment, and there were cases of individual mice death or not developing diarrhea.)

In the case of CN1CCN(c2ccc(Nc3ncc4cc5n(c4n3)C3(CCCCC3)CNC5=O)nc2)CC1 [Compound I, Trilaciclib], the Relative remission rate (Ex 1, 5-Fu 125 mg/kg intraperitoneal single, compound 100 mg/kg intravenous single 0.5 h before, cycle 10 days) is reported as 70%, the Relative remission rate (Ex 2, 5-Fu 125 mg/kg intraperitoneal single, compound 100 mg/kg intravenous single 1 h before, cycle 10 days) is reported as 70% and the Relative remission rate (Ex 3, 5-Fu 125 mg/kg intraperitoneal single, compound 100 mg/kg intravenous single 2 h before, cycle 10 days) is reported as 60%. It also gave a Relative remission rate (Ex 4, 5-Fu 125 mg/kg intraperitoneal single, compound 100 mg/kg intravenous single 3 h before, cycle 10 days) of 60%, a Relative remission rate (Ex 5, 5-Fu 125 mg/kg intraperitoneal single, compound 100 mg/kg intravenous single 4 h before, cycle 10 days) of 60% and a Relative remission rate (Ex 6, 5-Fu 125 mg/kg intraperitoneal single, compound 100 mg/kg intravenous single 5 h before, cycle 10 days) of 40%. It also gave a Relative remission rate (Ex 7, 5-Fu 125 mg/kg intraperitoneal single, compound 100 mg/kg intravenous single 6 h before, cycle 10 days) of 40%, a Relative remission rate (Ex 8, 5-Fu 125 mg/kg intraperitoneal single, compound 100 mg/kg intravenous single 7 h before, cycle 10 days) of 40% and a Relative remission rate (Ex 9, 5-Fu 125 mg/kg intraperitoneal single, compound 100 mg/kg intravenous single 8 h before, cycle 10 days) of 50%. For the same molecule, the Relative remission rate (Ex 10, 5-Fu 125 mg/kg intraperitoneal single, compound 100 mg/kg intravenous single 9 h before, cycle 10 days) was 40%, the Relative remission rate (Ex 11, 5-Fu 125 mg/kg intraperitoneal single, compound 100 mg/kg intravenous single 10 h before, cycle 10 days) was 50% and the Relative remission rate (Ex 12, 5-Fu 125 mg/kg intraperitoneal single, compound 100 mg/kg intravenous single 11 h before, cycle 10 days) was 40%. It also gave a Relative remission rate (Ex 13, 5-Fu 125 mg/kg intraperitoneal single, compound 12.5 mg/kg intravenous single 12 h before, cycle 10 days) of 30%, a Relative remission rate (Ex 14, 5-Fu 125 mg/kg intraperitoneal single, compound 25 mg/kg intravenous single 12 h before, cycle 10 days) of 40% and a Relative remission rate (Ex 15, 5-Fu 125 mg/kg intraperitoneal single, compound 50 mg/kg intravenous single 12 h before, cycle 10 days) of 60%. For the same molecule, the Relative remission rate (Ex 16, 5-Fu 125 mg/kg intraperitoneal single, compound 100 mg/kg intravenous single 12 h before, cycle 10 days) was 70%, the Relative remission rate (Ex 17, 5-Fu 125 mg/kg intraperitoneal single, compound 150 mg/kg intravenous single 12 h before, cycle 10 days) was 50% and the Relative remission rate (Ex 18, 5-Fu 125 mg/kg intraperitoneal single, compound 240 mg/kg intravenous single 12 h before, cycle 10 days) was 50%. It also gave a Relative remission rate (Ex 86, Oxaliplatin 17.5 mg/kg intravenous single, compound 150 mg/kg intravenous single 20 h before, cycle 8 days) of 40%, a Relative remission rate (Ex 87, Oxaliplatin 17.5 mg/kg intravenous single, compound 150 mg/kg intravenous single 24 h before, cycle 8 days) of 50% and a Relative remission rate (Ex 88, Oxaliplatin 17.5 mg/kg intravenous single, compound 150 mg/kg intravenous single 48 h before, cycle 8 days) of 0%. The Relative remission rate (Ex 92, Irinotecan (CPT-11) 240 mg/kg intraperitoneal single, compound 100 mg/kg intravenous single 0.5 h before, cycle 7 days) was 50%, the Relative remission rate (Ex 93, Irinotecan (CPT-11) 240 mg/kg intraperitoneal single, compound 100 mg/kg intravenous single 1 h before, cycle 7 days) was 50% and the Relative remission rate (Ex 94, Irinotecan (CPT-11) 240 mg/kg intraperitoneal single, compound 100 mg/kg intravenous single 2 h before, cycle 7 days) was 50%. It also gave a Relative remission rate (Ex 95, Irinotecan (CPT-11) 240 mg/kg intraperitoneal single, compound 100 mg/kg intravenous single 3 h before, cycle 7 days) of 40%, a Relative remission rate (Ex 96, Irinotecan (CPT-11) 240 mg/kg intraperitoneal single, compound 100 mg/kg intravenous single 4 h before, cycle 7 days) of 50% and a Relative remission rate (Ex 97, Irinotecan (CPT-11) 240 mg/kg intraperitoneal single, compound 100 mg/kg intravenous single 5 h before, cycle 7 days) of 40%. It also gave a Relative remission rate (Ex 98, Irinotecan (CPT-11) 240 mg/kg intraperitoneal single, compound 100 mg/kg intravenous single 6 h before, cycle 7 days) of 40%, a Relative remission rate (Ex 99, Irinotecan (CPT-11) 240 mg/kg intraperitoneal single, compound 100 mg/kg intravenous single 7 h before, cycle 7 days) of 70% and a Relative remission rate (Ex 100, Irinotecan (CPT-11) 240 mg/kg intraperitoneal single, compound 100 mg/kg intravenous single 8 h before, cycle 7 days) of 70%. The Relative remission rate (Ex 101, Irinotecan (CPT-11) 240 mg/kg intraperitoneal single, compound 100 mg/kg intravenous single 9 h before, cycle 7 days) was 60%, the Relative remission rate (Ex 102, Irinotecan (CPT-11) 240 mg/kg intraperitoneal single, compound 100 mg/kg intravenous single 10 h before, cycle 7 days) was 40% and the Relative remission rate (Ex 103, Irinotecan (CPT-11) 240 mg/kg intraperitoneal single, compound 100 mg/kg intravenous single 11 h before, cycle 7 days) was 60%. It also gave a Relative remission rate (Ex 104, Irinotecan (CPT-11) 240 mg/kg intraperitoneal single, compound 100 mg/kg intravenous single 12 h before, cycle 7 days) of 60%, a Relative remission rate (Ex 105, Irinotecan (CPT-11) 240 mg/kg intraperitoneal single, compound 100 mg/kg intravenous single 14 h before, cycle 7 days) of 50% and a Relative remission rate (Ex 106, Irinotecan (CPT-11) 240 mg/kg intraperitoneal single, compound 100 mg/kg intravenous single 16 h before, cycle 7 days) of 70%. It also gave a Relative remission rate (Ex 107, Irinotecan (CPT-11) 240 mg/kg intraperitoneal single, compound 100 mg/kg intravenous single 18 h before, cycle 7 days) of 70%, a Relative remission rate (Ex 108, Irinotecan (CPT-11) 240 mg/kg intraperitoneal single, compound 100 mg/kg intravenous single 20 h before, cycle 7 days) of 40% and a Relative remission rate (Ex 109, Irinotecan (CPT-11) 240 mg/kg intraperitoneal single, compound 100 mg/kg intravenous single 22 h before, cycle 7 days) of 40%. It also gave a Relative remission rate (Ex 110, Irinotecan (CPT-11) 240 mg/kg intraperitoneal single, compound 100 mg/kg intravenous single 24 h before, cycle 7 days) of 30%, a Relative remission rate (Ex 111, Irinotecan (CPT-11) 240 mg/kg intraperitoneal single, compound 100 mg/kg intravenous single 48 h before, cycle 7 days) of 0% and a Relative remission rate (Ex 118, Irinotecan (CPT-11) 300 mg/kg oral single, compound 100 mg/kg intraperitoneal single 12 h before, cycle 11 days) of 50%. The Relative remission rate (Ex 119, Irinotecan (CPT-11) 250 mg/kg intramuscular single, compound 100 mg/kg intramuscular single 1 h before, cycle 7 days) was 70%, the Relative remission rate (Ex 120, Irinotecan (CPT-11) 200 mg/kg intravenous single, compound 100 mg/kg intravenous single 0. h before, cycle 7 days) was 70% and the Relative remission rate (Ex 121, Fluorouracil 100 + irinotecan 200 mg/kg intravenous single, compound 100 mg/kg intravenous single 0.5 h before, cycle 10 days) was 70%. The Relative remission rate (Ex 122, Fluorouracil 100 + irinotecan 200 mg/kg intravenous single, compound 100 mg/kg intravenous single 4 h before, cycle 10 days) was 40% and the Relative remission rate (Ex 123, Fluorouracil 100 + irinotecan 200 mg/kg intravenous single, compound 100 mg/kg intravenous single 8 h before, cycle 10 days) was 50%.
